Results from paper PMC10065799, “High-throughput profiling of sequence recognition by tyrosine kinases and SH2 domains using bacterial peptide display” (eLife, 2023).

Biological target: T1, c-Abl kinase domain (Mus musculus, UniProt P00520)
T1 sequence (P00520 242-493 limits assumed): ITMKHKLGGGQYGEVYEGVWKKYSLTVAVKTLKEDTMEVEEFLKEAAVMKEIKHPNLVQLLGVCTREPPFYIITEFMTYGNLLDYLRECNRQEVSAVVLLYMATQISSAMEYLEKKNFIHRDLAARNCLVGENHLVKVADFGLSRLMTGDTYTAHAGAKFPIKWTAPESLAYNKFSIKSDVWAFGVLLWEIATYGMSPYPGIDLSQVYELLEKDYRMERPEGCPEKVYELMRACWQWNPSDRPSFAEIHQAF
Assay: pTyr-Var library bacterial peptide display kinase screen (enrichment scores)
Type: biochemical
Conditions: variant versus reference peptide

ATGLIYIGSHD [AASDH_Y870_T865A]
c-Abl difference (mean log2 variant - mean log2 reference): 0.7644
